Experimental data from patent publication US20230339891A1, “URACIL DERIVATIVES AS MER-AXL INHIBITORS” (BRISTOL-MYERS SQUIBB COMPANY, priority 2018, published 2023).

Key:
HIS-AXL 473-End = HIS-AXL 473-End (Homo sapiens (Human), UniProt P30530); assay: AXL kinase homogeneous time resolved fluorescence (HTRF) binding assay; conditions: 1 nM kinase, fluorescein-labeled kinase tracer at Kd, 60 minutes at room temperature
Experimental: (§1) MERTK, AXL, TYRO3 Kinase Homogeneous Time Resolved Fluorescence (HTRF) Assay
(§2) Assays were performed in black, flat-bottom, 1536-well plates. The reactions were incubated at room temperature for 60 minutes, following which the HTRF signals, ratio of fluorescence intensities at emission wavelengths for fluorescein acceptor (520 nm) and terbium donor (495 nm), the 520/495 ratio, were measured on the Envision Plate reader. Inhibition data were calculated from the 520/495 ratio generated by the no protein control reactions for 100% inhibition and vehicle-only reactions for 0% inhibition, and dose response curves generated to determine the concentration required for inhibiting 50% of the HTRF signal (IC50). Compounds were dissolved at 10 mM in dimethylsulfoxide (DMSO) and evaluated at eleven concentrations.

GST-MERTK 578-872 = GST-MERTK 578-872 (Homo sapiens (Human), UniProt Q12866); assay: MERTK kinase homogeneous time resolved fluorescence (HTRF) binding assay; conditions: 1 nM kinase, fluorescein-labeled kinase tracer at Kd, 60 minutes at room temperature; read-out: Mer HTRF IC50
Experimental: as §1, §2

Chain of HIS-AXL 473-End (P30530 473-894): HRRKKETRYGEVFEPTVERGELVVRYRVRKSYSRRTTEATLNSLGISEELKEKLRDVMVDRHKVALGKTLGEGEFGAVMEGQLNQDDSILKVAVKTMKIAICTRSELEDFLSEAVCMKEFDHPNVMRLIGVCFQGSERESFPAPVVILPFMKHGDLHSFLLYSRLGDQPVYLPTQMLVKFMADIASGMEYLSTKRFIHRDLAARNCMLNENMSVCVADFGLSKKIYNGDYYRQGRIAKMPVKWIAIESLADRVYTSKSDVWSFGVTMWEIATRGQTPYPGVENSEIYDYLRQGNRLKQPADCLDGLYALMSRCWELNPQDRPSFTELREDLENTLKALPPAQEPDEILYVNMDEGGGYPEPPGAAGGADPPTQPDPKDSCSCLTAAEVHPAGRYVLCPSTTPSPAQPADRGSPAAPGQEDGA
Chain of GST-MERTK 578-872 (Q12866 578-872): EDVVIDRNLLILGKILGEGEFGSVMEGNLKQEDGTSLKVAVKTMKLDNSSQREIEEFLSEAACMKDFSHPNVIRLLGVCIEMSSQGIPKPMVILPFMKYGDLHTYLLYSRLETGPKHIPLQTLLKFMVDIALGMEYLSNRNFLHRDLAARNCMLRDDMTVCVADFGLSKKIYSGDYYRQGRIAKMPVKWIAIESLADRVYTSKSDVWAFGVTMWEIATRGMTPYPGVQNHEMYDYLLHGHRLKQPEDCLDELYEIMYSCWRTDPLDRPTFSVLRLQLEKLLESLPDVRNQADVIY

Compound | IC50 (HIS-AXL 473-End) | IC50 (GST-MERTK 578-872)
CCc1ccc(Nc2cc(Oc3ccc(NC(=O)c4cn(C(C)C)c(=O)n(-c5ccc(F)cc5)c4=O)cc3F)ccn2)nc1 [Example 5] | 24 nM | 56 nM
CC(C)n1cc(C(=O)Nc2ccc(Oc3ccnc(Nc4ccc(S(=O)(=O)N5CCC5)cn4)c3)c(F)c2)c(=O)n(-c2ccc(F)cc2)c1=O [Example 81] | 4.4 nM | 17 nM
Cn1cc(C(=O)Nc2ccc(Oc3ccnc(Nc4ccc(S(C)(=O)=O)cn4)c3)c(F)c2)c(=O)n(-c2ccc(F)cc2)c1=O [Example 38] | 3.5 nM | 16 nM
CC(C)n1cc(C(=O)Nc2ccc(Oc3ccnc(Nc4ccnc(N5CCC(S(C)(=O)=O)CC5)n4)c3)c(F)c2)c(=O)n(-c2ccc(F)cc2)c1=O [Example 114] | 0.6 nM | 1.4 nM
COC(=O)N1CCN(c2nc(Nc3cc(Oc4ccc(NC(=O)c5cn(C(C)C)c(=O)n(-c6ccc(F)cc6)c5=O)cc4F)ccn3)ccc2S(=O)(=O)N(C)C)CC1 [Example 100] | 3.1 nM | 2.1 nM
CC(C)n1cc(C(=O)Nc2ccc(Oc3ccnc(Nc4ccc(S(=O)(=O)N(C)C)cn4)c3)c(F)c2)c(=O)n(-c2cccc(F)c2)c1=O [Example 68] | 7.1 nM | 20 nM
Cc1cnc(Nc2cc(Oc3ccc(NC(=O)c4cn(C(C)C)c(=O)n(-c5ccc(F)cc5)c4=O)cc3F)ccn2)nc1N1CCN(S(C)(=O)=O)CC1 [Example 137, N-(3-fluoro-4-[(2-{[4-(4-methanesulfonylpiperazin-1-yl)-5-methylpyrimidin-2-yl]amino}pyridin-4-yl)oxy]phenyl)-3-(4-fluorophenyl)-2,4-dioxo-1-(propan-2-yl)-1,2,3,4-tetrahydropyrimidine-5-carboxamide] | 3.4 nM | 3.6 nM
CC(C)n1cc(C(=O)Nc2ccc(Oc3ccnc(Nc4ccc(S(=O)(=O)NC(C)(C)C)cn4)c3)c(F)c2)c(=O)n(-c2ccc(F)cc2)c1=O [Example 80] | 12 nM | 19 nM
CC(C)n1cc(C(=O)Nc2ccc(Oc3ccnc(Nc4ccc(C#N)cn4)c3)c(F)c2)c(=O)n(-c2ccc(F)cc2)c1=O [Example 1, N-[4-({2-[(5-cyanopyridin-2-yl)amino]pyridin-4-yl}oxy)-3-fluorophenyl]-3-(4-fluorophenyl)-2,4-dioxo-1-(propan-2-yl)-1,2,3,4-tetrahydropyrimidine-5-carboxamide] | 2.9 nM | 14 nM
CC(C)n1cc(C(=O)Nc2ccc(Oc3ccnc(Nc4ncc(C(F)(F)F)cn4)c3)c(F)c2)c(=O)n(-c2ccc(F)cc2)c1=O [Example 30] | 48 nM | 165 nM
CC(C)n1cc(C(=O)Nc2ccc(Oc3ccnc(Nc4ccc(S(N)(=O)=O)cn4)c3)c(F)c2)c(=O)n(-c2ccc(F)cc2)c1=O [Example 19] | 1.6 nM | 4.4 nM
CC(C)n1cc(C(=O)Nc2ccc(Oc3ccnc(Nc4ccc(C(F)(F)F)c(N5CCN(S(=O)(=O)N(C)C)CC5)n4)c3)c(F)c2)c(=O)n(-c2ccc(F)cc2)c1=O [Example 141] | 14700 nM | 17 nM
CC(C)n1cc(C(=O)Nc2ccc(Oc3ccnc(Nc4ccc(C#N)c(N5CCC(S(C)(=O)=O)C5)n4)c3)c(F)c2)c(=O)n(-c2ccc(F)cc2)c1=O (stereo not drawn) [Example 124] | 2 nM | 2.9 nM
Cc1cc(Nc2cc(Oc3ccc(NC(=O)c4cn(C(C)C)c(=O)n(-c5ccc(F)cc5)c4=O)cc3F)ccn2)nc(N2CCN(S(C)(=O)=O)CC2)c1 [Example 136, N-{3-fluoro-4-[(2-{[6-(4-methanesulfonylpiperazin-1-yl)-4-methylpyridin-2-yl]amino}pyridin-4-yl)oxy]phenyl}-3-(4-fluorophenyl)-2,4-dioxo-1-(propan-2-yl)-1,2,3,4-tetrahydropyrimidine-5-carboxamide] | 1040 nM | 3.9 nM
CC(C)n1cc(C(=O)Nc2ccc(Oc3ccnc(Nc4cccc(C(F)(F)F)n4)c3)c(F)c2)c(=O)n(-c2ccc(F)cc2)c1=O [Example 9] | 29 nM | 16 nM
CC(C)n1cc(C(=O)Nc2ccc(Oc3ccnc(Nc4ccc(-n5ccnc5)cn4)c3)c(F)c2)c(=O)n(-c2ccc(F)cc2)c1=O [Example 24] | 5.6 nM | 12 nM
Cc1cnc(Nc2cc(Oc3ccc(NC(=O)c4cn(C(C)C)c(=O)n(-c5ccc(F)cc5)c4=O)cc3F)ccn2)nc1 [Example 31] | 7.5 nM | 158 nM
CC(=O)c1ccc(-n2c(=O)c(C(=O)Nc3ccc(Oc4ccnc(Nc5ccc(S(=O)(=O)N(C)C)cn5)c4)c(F)c3)cn(C(C)C)c2=O)cc1 [Example 64] | 181 nM | 814 nM
CCc1cnc(Nc2cc(Oc3ccc(NC(=O)c4cn(C(C)C)c(=O)n(-c5ccc(F)cc5)c4=O)cc3F)ccn2)cn1 [Example 28] | 7.4 nM | 20 nM
CC(C)n1cc(C(=O)Nc2ccc(Oc3ccnc(Nc4ccnc(N5CCN(S(C)(=O)=O)CC5)n4)c3)c(F)c2)c(=O)n(-c2ccc(F)cc2)c1=O [Example 102, N-{3-fluoro-4-[(2-{[2-(4-methanesulfonylpiperazin-1-yl)pyrimidin-4-yl]amino}pyridin-4-yl)oxy]phenyl}-3-(4-fluorophenyl)-2,4-dioxo-1-(propan-2-yl)-1,2,3,4-tetrahydropyrimidine-5-carboxamide] | 0.9 nM | 0.5 nM
CC(C)n1cc(C(=O)Nc2ccc(Oc3ccnc(Nc4ccc(S(=O)(=O)N5CCOCC5)cn4)c3)c(F)c2)c(=O)n(-c2ccc(F)cc2)c1=O [Example 84] | 2330 nM | 31 nM
CC(C)n1cc(C(=O)Nc2ccc(Oc3ccnc(Nc4ccc(S(=O)(=O)NC5CC5)cn4)c3)c(F)c2)c(=O)n(-c2ccc(F)cc2)c1=O [Example 79] | 70 nM | 13 nM
CC(C)n1cc(C(=O)Nc2ccc(Oc3ccnc(Nc4ccc(N5CCN(C(C)(C)C)C5=O)cn4)c3)c(F)c2)c(=O)n(-c2ccc(F)cc2)c1=O [Example 91] | 38 nM | 72 nM
CC(C)n1cc(C(=O)Nc2ccc(Oc3ccnc(Nc4ccc(C(F)(F)F)c(N5CCN(S(C)(=O)=O)CC5)n4)c3)c(F)c2)c(=O)n(-c2ccc(F)cc2)c1=O [Example 138, N-{3-fluoro-4-[(2-{[6-(4-methanesulfonylpiperazin-1-yl)-5-(trifluoromethyl)pyridin-2-yl]amino}pyridin-4-yl)oxy]phenyl}-3-(4-fluorophenyl)-2,4-dioxo-1-(propan-2-yl)-1,2,3,4-tetrahydropyrimidine-5-carboxamide] | 23 nM | 20 nM
CC(C)n1cc(C(=O)Nc2ccc(Oc3ccnc(Nc4ccnc(N5CCCC5)n4)c3)c(F)c2)c(=O)n(C2CCCCC2)c1=O [Example 109] | 62 nM | 70 nM
Cc1cnc(Nc2cc(Oc3ccc(NC(=O)c4cn(C(C)C)c(=O)n(-c5ccc(F)cc5)c4=O)cc3F)ccn2)cn1 [Example 27] | 6.8 nM | 19 nM
CCc1cnc(Nc2cc(Oc3ccc(NC(=O)c4cn(C(C)C)c(=O)n(-c5ccc(F)cc5)c4=O)cc3F)ccn2)nc1 [Example 32] | 0.9 nM | 342 nM
